ChEMBL document CHEMBL5038625, “Application of the dual-tail approach for the design and synthesis of novel Thiopyrimidine-Benzenesulfonamide hybrids as selective carbonic anhydrase inhibitors” (Eur J Med Chem, 2022)

Tests used:
RXF 393 = assay: Antiproliferative activity against human RXF 393 cells assessed as cell growth inhibition at 10 uM incubated for 24 hrs by sulforhodamine B assay; assay type: functional; details: read-out: GI
HCT-116 = assay: Antiproliferative activity against human HCT-116 cells assessed as cell growth inhibition at 10 uM incubated for 24 hrs by sulforhodamine B assay; assay type: functional; details: read-out: GI
RPMI-8226 = assay: Antiproliferative activity against human RPMI-8226 cells assessed as cell growth inhibition at 10 uM incubated for 24 hrs by sulforhodamine B assay; assay type: functional; details: read-out: GI
A498 = assay: Antiproliferative activity against human A498 cells assessed as cell growth inhibition at 10 uM incubated for 24 hrs by sulforhodamine B assay; assay type: functional; details: read-out: GI
HT-29 = assay: Antiproliferative activity against human HT-29 cells assessed as cell growth inhibition at 10 uM incubated for 24 hrs by sulforhodamine B assay; assay type: functional; details: read-out: GI
CCRF-CEM = assay: Antiproliferative activity against human CCRF-CEM cells assessed as cell growth inhibition at 10 uM incubated for 24 hrs by sulforhodamine B assay; assay type: functional; details: read-out: GI
Carbonic anhydrase 9 = Carbonic anhydrase 9 (Homo sapiens, UniProt Q16790); assay: Inhibition of human CA9 preincubated for 15 mins by phenol red dye based stopped flow CO2 hydration assay
SR = assay: Antiproliferative activity against human SR cells assessed as cell growth inhibition at 10 uM incubated for 24 hrs by sulforhodamine B assay; assay type: functional; details: read-out: GI
T47D = assay: Antiproliferative activity against human T47D cells assessed as cell growth inhibition at 10 uM incubated for 24 hrs by sulforhodamine B assay; assay type: functional; details: read-out: GI
SF-268 = assay: Antiproliferative activity against human SF-268 cells assessed as cell growth inhibition at 10 uM incubated for 24 hrs by sulforhodamine B assay; assay type: functional; details: read-out: GI
DU-145 = assay: Antiproliferative activity against human DU-145 cells assessed as cell growth inhibition at 10 uM incubated for 24 hrs by sulforhodamine B assay; assay type: functional; details: read-out: GI
SN12C = assay: Antiproliferative activity against human SN12C cells assessed as cell growth inhibition at 10 uM incubated for 24 hrs by sulforhodamine B assay; assay type: functional; details: read-out: GI
HL-60 = assay: Antiproliferative activity against human HL-60 cells assessed as cell growth inhibition at 10 uM incubated for 24 hrs by sulforhodamine B assay; assay type: functional; details: read-out: GI
MDA-MB-231 = assay: Antiproliferative activity against human MDA-MB-231 cells assessed as cell growth inhibition at 10 uM incubated for 24 hrs by sulforhodamine B assay; assay type: functional; details: read-out: GI
NCI-H522 = assay: Antiproliferative activity against human NCI-H522 cells assessed as cell growth inhibition at 10 uM incubated for 24 hrs by sulforhodamine B assay; assay type: functional; details: read-out: GI
MDA-MB-468 = assay: Antiproliferative activity against human MDA-MB-468 cells assessed as cell growth inhibition at 10 uM incubated for 24 hrs by sulforhodamine B assay; assay type: functional; details: read-out: GI
EKVX = assay: Antiproliferative activity against human EKVX cells assessed as cell growth inhibition at 10 uM incubated for 24 hrs by sulforhodamine B assay; assay type: functional; details: read-out: GI
SK-MEL-5 = assay: Antiproliferative activity against human SK-MEL-5 cells assessed as cell growth inhibition at 10 uM incubated for 24 hrs by sulforhodamine B assay; assay type: functional; details: read-out: GI
OVCAR-3 = assay: Antiproliferative activity against human OVCAR-3 cells assessed as cell growth inhibition at 10 uM incubated for 24 hrs by sulforhodamine B assay; assay type: functional; details: read-out: GI
NCI/ADR-RES = assay: Antiproliferative activity against human NCI-ADR-RES cells assessed as cell growth inhibition at 10 uM incubated for 24 hrs by sulforhodamine B assay; assay type: functional; details: read-out: GI
SNB-75 = assay: Antiproliferative activity against human SNB-75 cells assessed as cell growth inhibition at 10 uM incubated for 24 hrs by sulforhodamine B assay; assay type: functional; details: read-out: GI
NCI-H460 = assay: Antiproliferative activity against human NCI-H460 cells assessed as cell growth inhibition at 10 uM incubated for 24 hrs by sulforhodamine B assay; assay type: functional; details: read-out: GI
M14 = assay: Antiproliferative activity against human M14 cells assessed as cell growth inhibition at 10 uM incubated for 24 hrs by sulforhodamine B assay; assay type: functional; details: read-out: GI
SNB-19 = assay: Antiproliferative activity against human SNB-19 cells assessed as cell growth inhibition at 10 uM incubated for 24 hrs by sulforhodamine B assay; assay type: functional; details: read-out: GI
NCI-H23 = assay: Antiproliferative activity against human NCI-H23 cells assessed as cell growth inhibition at 10 uM incubated for 24 hrs by sulforhodamine B assay; assay type: functional; details: read-out: GI
ACHN = assay: Antiproliferative activity against human ACHN cells assessed as cell growth inhibition at 10 uM incubated for 24 hrs by sulforhodamine B assay; assay type: functional; details: read-out: GI
SF-539 = assay: Antiproliferative activity against human SF-539 cells assessed as cell growth inhibition at 10 uM incubated for 24 hrs by sulforhodamine B assay; assay type: functional; details: read-out: GI
Hs-578T = assay: Antiproliferative activity against human HS-578T cells assessed as cell growth inhibition at 10 uM incubated for 24 hrs by sulforhodamine B assay; assay type: functional; details: read-out: GI
COLO 205 = assay: Antiproliferative activity against human COLO 205 cells assessed as cell growth inhibition at 10 uM incubated for 24 hrs by sulforhodamine B assay; assay type: functional; details: read-out: GI
UACC-62 = assay: Antiproliferative activity against human UACC-62 cells assessed as cell growth inhibition at 10 uM incubated for 24 hrs by sulforhodamine B assay; assay type: functional; details: read-out: GI
PC-3 = assay: Antiproliferative activity against human PC-3 cells assessed as cell growth inhibition at 10 uM incubated for 24 hrs by sulforhodamine B assay; assay type: functional; details: read-out: GI
SF-295 = assay: Antiproliferative activity against human SF-295 cells assessed as cell growth inhibition at 10 uM incubated for 24 hrs by sulforhodamine B assay; assay type: functional; details: read-out: GI
OVCAR-4 = assay: Antiproliferative activity against human OVCAR-4 cells assessed as cell growth inhibition at 10 uM incubated for 24 hrs by sulforhodamine B assay; assay type: functional; details: read-out: GI
A549 = assay: Antiproliferative activity against human A549 cells assessed as cell growth inhibition at 10 uM incubated for 24 hrs by sulforhodamine B assay; assay type: functional; details: read-out: GI
HCT-15 = assay: Antiproliferative activity against human HCT-15 cells assessed as cell growth inhibition at 10 uM incubated for 24 hrs by sulforhodamine B assay; assay type: functional; details: read-out: GI
K562 = assay: Antiproliferative activity against human K562 cells assessed as cell growth inhibition at 10 uM incubated for 24 hrs by sulforhodamine B assay; assay type: functional; details: read-out: GI
NCI-H226 = assay: Antiproliferative activity against human NCI-H226 cells assessed as cell growth inhibition at 10 uM incubated for 24 hrs by sulforhodamine B assay; assay type: functional; details: read-out: GI
UO-31 = assay: Antiproliferative activity against human UO-31 cells assessed as cell growth inhibition at 10 uM incubated for 24 hrs by sulforhodamine B assay; assay type: functional; details: read-out: GI
U-251 = assay: Antiproliferative activity against human U-251 cells assessed as cell growth inhibition at 10 uM incubated for 24 hrs by sulforhodamine B assay; assay type: functional; details: read-out: GI
SW-620 = assay: Antiproliferative activity against human SW-620 cells assessed as cell growth inhibition at 10 uM incubated for 24 hrs by sulforhodamine B assay; assay type: functional; details: read-out: GI
MDA-MB-435 = assay: Antiproliferative activity against human MDA-MB-435 cells assessed as cell growth inhibition at 10 uM incubated for 24 hrs by sulforhodamine B assay; assay type: functional; details: read-out: GI
MCF7 = assay: Antiproliferative activity against human MCF7 cells assessed as cell growth inhibition at 10 uM incubated for 24 hrs by sulforhodamine B assay; assay type: functional; details: read-out: GI
LOX IMVI = assay: Antiproliferative activity against human LOX IMVI cells assessed as cell growth inhibition at 10 uM incubated for 24 hrs by sulforhodamine B assay; assay type: functional; details: read-out: GI
[1] = Antiproliferative activity against human […] cells assessed as cell growth inhibition at 10 uM incubated for 24 hrs by sulforhodamine B assay; assay type: functional; details: read-out: GI
OVCAR-8 = assay: Antiproliferative activity against human OVCAR-8 cells assessed as cell growth inhibition at 10 uM incubated for 24 hrs by sulforhodamine B assay; assay type: functional; details: read-out: GI
MOLT-4 = assay: Antiproliferative activity against human MOLT-4 cells assessed as cell growth inhibition at 10 uM incubated for 24 hrs by sulforhodamine B assay; assay type: functional; details: read-out: GI
CAKI-1 = assay: Antiproliferative activity against human CAKI-1 cells assessed as cell growth inhibition at 10 uM incubated for 24 hrs by sulforhodamine B assay; assay type: functional; details: read-out: GI
KM12 = assay: Antiproliferative activity against human KM12 cells assessed as cell growth inhibition at 10 uM incubated for 24 hrs by sulforhodamine B assay; assay type: functional; details: read-out: GI
IGROV-1 = assay: Antiproliferative activity against human IGROV-1 cells assessed as cell growth inhibition at 10 uM incubated for 24 hrs by sulforhodamine B assay; assay type: functional; details: read-out: GI

COc1ccc(OC)c(-c2nc(SCC(=O)c3ccc(Br)cc3)nc(Nc3cccc(S(N)(=O)=O)c3)c2C#N)c1
inhibition of growth at 10 µM (RXF 393): 39.8% | inhibition of growth at 10 µM (HCT-116): 27.9% | inhibition of growth at 10 µM (RPMI-8226): 18.5% | inhibition of growth at 10 µM (A498): 22.5% | inhibition of growth at 10 µM (HT-29): 9.87% | inhibition of growth at 10 µM (CCRF-CEM): 20.1% | Ki (Carbonic anhydrase 9): 60.1 nM | inhibition of growth at 10 µM (SR): 30.5% | inhibition of growth at 10 µM (T47D): 23.9% | inhibition of growth at 10 µM (SF-268): 23.7% | inhibition of growth at 10 µM (DU-145): 12.9% | inhibition of growth at 10 µM (SN12C): 18.1% | inhibition of growth at 10 µM (HL-60): 10.3% | inhibition of growth at 10 µM (MDA-MB-231): 23.8% | inhibition of growth at 10 µM (NCI-H522): 5.79% | inhibition of growth at 10 µM (MDA-MB-468): 15.4% | inhibition of growth at 10 µM (EKVX): 18.4% | inhibition of growth at 10 µM (SK-MEL-5): 5.18% | inhibition of growth at 10 µM (OVCAR-3): 22.4% | inhibition of growth at 10 µM (NCI/ADR-RES): 8.77% | inhibition of growth at 10 µM (SNB-75): 23.1% | inhibition of growth at 10 µM (NCI-H460): 22.5% | inhibition of growth at 10 µM (M14): 6.53% | inhibition of growth at 10 µM (SNB-19): 16.4% | inhibition of growth at 10 µM (NCI-H23): 7.31% | inhibition of growth at 10 µM (ACHN): 20.2% | inhibition of growth at 10 µM (SF-539): 16.5% | inhibition of growth at 10 µM (Hs-578T): 25.5% | inhibition of growth at 10 µM (COLO 205): 14.6% | inhibition of growth at 10 µM (UACC-62): 11.6% | inhibition of growth at 10 µM (PC-3): 34.1% | inhibition of growth at 10 µM (SF-295): 13.3% | inhibition of growth at 10 µM (OVCAR-4): 24.1% | inhibition of growth at 10 µM (A549): 26.7% | inhibition of growth at 10 µM (HCT-15): 23.4% | inhibition of growth at 10 µM (K562): 29.5% | inhibition of growth at 10 µM (NCI-H226): 15.2% | inhibition of growth at 10 µM (UO-31): 50.2% | inhibition of growth at 10 µM (U-251): 19.1% | inhibition of growth at 10 µM (SW-620): 13.9% | inhibition of growth at 10 µM (MDA-MB-435): 15.4% | inhibition of growth at 10 µM (MCF7): 28.6% | inhibition of growth at 10 µM (LOX IMVI): 16.6% | inhibition of growth at 10 µM [1]: 14% | inhibition of growth at 10 µM (OVCAR-8): 14.2% | inhibition of growth at 10 µM (MOLT-4): 45.3% | inhibition of growth at 10 µM (CAKI-1): 52.1% | inhibition of growth at 10 µM (KM12): 11.8% | inhibition of growth at 10 µM (IGROV-1): 8.33%
